{
  "source": "paper PMC7854751",
  "about": "“Estimation of radiation dose from ingested tritium in humans by administration of deuterium-labelled compounds and food” (Scientific Reports, 2021)",
  "key": {"[1]": {"test": "D/H ratios in urine after oral administration of D-labelled compounds and soybean, OBD metabolic model fit", "assay_type": "in vivo, human", "experimental": "(§1) The total number of volunteers was 42, although some dropped out of the experiment, for various reasons. The data from these volunteers were eliminated. This study lasted 4 years; administration experiments were conducted from September to January, and each volunteer participated in one of the 4 years. […]\nAll D-labelled and ^13C-labelled compounds were purchased from Cambridge Isotopes, Inc. (Tewksbury). In each D-labelled molecule, hydrogen bound to carbon was uniformly replaced by D. Such D is not exchangeable to hydrogen in free body water after administration until it is metabolised to HDO, and is called non-exchangeable OBD (Nx-OBD). Exchangeable hydrogen, which was not bound to carbon, such as hydroxyl group hydrogen, was not replaced by D. In each ^13C-labelled compound, ^13C was uniformly labelled.\nThe D-labelled soybean was harvested three times. The harvested soybeans were boiled, freeze-dried, and then homogenised. The soy powder product was orally administered. To measure the D/H ratio, the soy powder was first immersed in drinking water, to replace exchangeable OBD (Ex-OBD), which was not bound to carbon. After the second freeze-drying process, the D/H ratio was measured using a mass spectrometer (Iso Prime 100; Elementar, Langenselbold, Germany). Buried tritium is defined as the tritium in a large biomolecule that remains in the molecule after rinsing samples with tritium-free water, despite its exchangeable position in the molecule. A fraction of buried deuterium was considered to remain in soybean powder. […] Therefore, we considered that effect of the amount of buried deuterium on the measured D/H ratio of soy powder was negligible. The hydrogen content of the soybean powders (gH/gDW) was measured using a gas chromatograph (NCH-22F; Sumika Chemical Analysis Service, Oosaka, Japan). The OBD content of the soybean powders (gOBD/gDW) were calculated from their D/H ratio and hydrogen content, and are summarised in Table 7.\n(§2) Urine and breath samples were periodically collected from days − 7 to 119, where the first day of the administration was defined as day 0. Urine samples were collected daily, when the volunteers rose in the morning, until day 28, then every two or three days until day 119. Additional samples were collected frequently, after administration. Urine samples were collected at every urination until bedtime, on days of administration. Breath samples were collected immediately prior to the administration, every 20 min from 12:30 to 17:10, and then hourly from 18:00 until bedtime.\n(§3) Urine was distilled, and the condensed water was collected for the measurement of D/H ratio, using a mass spectrometer (Iso Prime 100; Elementar, Langenselbold, Germany). Breath samples were collected using an airtight bag. The samples were analysed within 3 days. After purifying the CO2 in the breath using a gas chromatograph (MAT GC; Thermo Electron, Waltham, MA, USA), the ^13C/^12C ratio was measured using a mass spectrometer (Dalta V Advantage; Thermo Electron, Waltham, MA, USA).\n(§4) The increments were calculated of D/H and ^13C/^12C ratios above the background values measured for the samples before administration. The ratios were normalised to the same dosage (1 g D or ^13C per 70 kg body weight). When the D/H or ^13C/^12C ratios were below the limits (90% upper confidence limits of the background fluctuation), to cut off the data and any subsequent data were discarded.\n(§5) A metabolic model was developed, for each volunteer. For volunteers in the glucose, alanine, palmitic acid, and soybean groups, the model structure of the OBD shown in Fig. 1 was adopted, while for volunteers in the D2O group, the model structure for HDO was adopted. For each model, parameters were determined using the least squares method, using Microsoft Excel version 2007. The detailed procedures have been described previously. […]"}, "[2]": {"test": "D/H ratios in urine after oral administration of D2O, HDO metabolic model fit", "assay_type": "in vivo, human", "details": "for mean half-life for the FWD compartment of the HDO models: mean and standard deviation; for Rr, recovery ratio to the administered deuterium / k1, transfer rate from OBD compartment to FWD compartment / k2, transfer rate from FWD compartment to OBD compartment / ka, transfer rate from DT compartment to FWD compartment / ke, excretion rate from FWD compartment: once orally", "experimental": "as §1, §2, §3, §4, §5"}, "[3]": {"design": "method as in PMID 21947005", "details": "once orally; individual volunteer; presumed value, no clear second component; from mean residence time of carbon in adipose tissue ref 41; cited from earlier work"}, "[4]": {"design": "method as in PMID 32424291", "details": "cited from earlier work; for d1, ratio of organic compounds to inorganic compounds immediately after administration: 13C-labelled compound experiments, mean ± standard deviation ref 31"}, "[5]": {"details": "intravenous injection ref 28; cited from earlier work"}},
  "note": "Values joined by “and” are separate entries in the source; they are usually repeats but may differ in a detail not shown here. Equal values may be shown once. Read-outs that look alike come from different tables or passages of the source. Marks after values point to notes of the source that are not given here.",
  "data": [
    {"smiles": "OC[C@H]1OC(O)[C@H](O)[C@@H](O)[C@@H]1O", "note": "(stereo partly drawn) [D-labelled glucose]", "values": [
      {"measurement": "ke, excretion rate from FWD compartment", "setting": "[1]; once orally, all volunteers average", "value": 0.073, "unit": "day⁻¹"},
      {"measurement": "ke, excretion rate from FWD compartment", "setting": "[1]; once orally, female average", "value": 0.067, "unit": "day⁻¹"},
      {"measurement": "ke, excretion rate from FWD compartment", "setting": "[1]; once orally, individual female volunteers", "value": "0.072 d^−1 (2×) and 0.081 d^−1 and 0.057 d^−1 and 0.073 d^−1 and 0.049 d^−1"},
      {"measurement": "ke, excretion rate from FWD compartment", "setting": "[1]; once orally, individual male volunteers", "value": "0.085 d^−1 (2×) and 0.097 d^−1 and 0.050 d^−1 and 0.078 d^−1"},
      {"measurement": "ke, excretion rate from FWD compartment", "setting": "[1]; once orally, male average", "value": 0.079, "unit": "day⁻¹"}
    ]},
    {"smiles": "[2H]O[2H]", "note": "[D2O]", "values": [
      {"measurement": "mean half-life for the FWD compartment of the HDO models", "setting": "[2]; combined group of volunteers", "value": "240 ± 72", "unit": "h"},
      {"measurement": "mean half-life for the FWD compartment of the HDO models", "setting": "[2]; females (n = 6)", "value": "240 ± 72", "unit": "h"},
      {"measurement": "mean half-life for the FWD compartment of the HDO models", "setting": "[2]; males (n = 3)", "value": "240 ± 48", "unit": "h"},
      {"measurement": "Rr, recovery ratio to the administered deuterium", "setting": "[2]; all volunteers average", "value": 0.93},
      {"measurement": "k1, transfer rate from OBD compartment to FWD compartment", "setting": "[2]; all volunteers average", "value": 0.010, "unit": "day⁻¹"},
      {"measurement": "k2, transfer rate from FWD compartment to OBD compartment", "setting": "[2]; all volunteers average", "value": 0.010, "unit": "day⁻¹"},
      {"measurement": "ka, transfer rate from DT compartment to FWD compartment", "setting": "[2]; all volunteers average", "value": 26, "unit": "day⁻¹"},
      {"measurement": "ke, excretion rate from FWD compartment", "setting": "[2]; all volunteers average", "value": 0.071, "unit": "day⁻¹"},
      {"measurement": "Rr, recovery ratio to the administered deuterium", "setting": "[2]; female average", "value": 0.93},
      {"measurement": "k1, transfer rate from OBD compartment to FWD compartment", "setting": "[2]; female average", "value": 0.011, "unit": "day⁻¹"},
      {"measurement": "k2, transfer rate from FWD compartment to OBD compartment", "setting": "[2]; female average", "value": 0.013, "unit": "day⁻¹"},
      {"measurement": "ka, transfer rate from DT compartment to FWD compartment", "setting": "[2]; female average", "value": 28, "unit": "day⁻¹"},
      {"measurement": "ke, excretion rate from FWD compartment", "setting": "[2]; female average", "value": 0.071, "unit": "day⁻¹"},
      {"measurement": "Rr, recovery ratio to the administered deuterium", "setting": "[2]; individual female volunteers", "value": "1.0 and 0.99 and 0.70 and 0.97 (2×) and 0.93"},
      {"measurement": "k1, transfer rate from OBD compartment to FWD compartment", "setting": "[2]; individual female volunteers", "value": "0.0067 day⁻¹ and 0.0074 day⁻¹ and 0.019 day⁻¹"},
      {"measurement": "k2, transfer rate from FWD compartment to OBD compartment", "setting": "[2]; individual female volunteers", "value": "0.016 day⁻¹ and 0.010 day⁻¹"},
      {"measurement": "ka, transfer rate from DT compartment to FWD compartment", "setting": "[2]; individual female volunteers", "value": "8.9 day⁻¹ and 23 day⁻¹ and 92 day⁻¹ and 14 day⁻¹ and 6.4 day⁻¹ and 21 day⁻¹"},
      {"measurement": "ke, excretion rate from FWD compartment", "setting": "[2]; individual female volunteers", "value": "0.056 day⁻¹ and 0.098 day⁻¹ and 0.081 day⁻¹ and 0.043 day⁻¹ and 0.078 day⁻¹ and 0.072 day⁻¹"},
      {"measurement": "Rr, recovery ratio to the administered deuterium", "setting": "[2]; individual male volunteers", "value": "0.91 and 1.0 and 0.92"},
      {"measurement": "k1, transfer rate from OBD compartment to FWD compartment", "setting": "[2]; individual male volunteers", "value": "0.0091 day⁻¹ and 0.0083 day⁻¹"},
      {"measurement": "k2, transfer rate from FWD compartment to OBD compartment", "setting": "[2]; individual male volunteers", "value": "0.0092 day⁻¹ and 0.0065 day⁻¹"},
      {"measurement": "ka, transfer rate from DT compartment to FWD compartment", "setting": "[2]; individual male volunteers", "value": "39 day⁻¹ and 8.6 day⁻¹ and 21 day⁻¹"},
      {"measurement": "ke, excretion rate from FWD compartment", "setting": "[2]; individual male volunteers", "value": "0.059 day⁻¹ and 0.063 day⁻¹ and 0.090 day⁻¹"},
      {"measurement": "Rr, recovery ratio to the administered deuterium", "setting": "[2]; male average", "value": 0.94},
      {"measurement": "k1, transfer rate from OBD compartment to FWD compartment", "setting": "[2]; male average", "value": 0.0087, "unit": "day⁻¹"},
      {"measurement": "k2, transfer rate from FWD compartment to OBD compartment", "setting": "[2]; male average", "value": 0.0079, "unit": "day⁻¹"},
      {"measurement": "ka, transfer rate from DT compartment to FWD compartment", "setting": "[2]; male average", "value": 23, "unit": "day⁻¹"},
      {"measurement": "ke, excretion rate from FWD compartment", "setting": "[2]; male average", "value": 0.071, "unit": "day⁻¹"},
      {"measurement": "k2, transfer rate from FWD compartment to OBD compartment", "setting": "[3]", "value": "0.0017* d^−1"}
    ]},
    {"smiles": "N[C@@H](Cc1ccccc1)C(=O)O", "note": "[^13C-labelled phenylalanine]", "values": [
      {"measurement": "d1, ratio of organic compounds to inorganic compounds immediately after administration", "setting": "[4]", "value": "0.25 ± 0.04"}
    ]},
    {"smiles": "CCCCCCCC/C=C\\CCCCCCCC(=O)O", "note": "[^13C-labelled oleic acid]", "values": [
      {"measurement": "d1, ratio of organic compounds to inorganic compounds immediately after administration", "setting": "[4]", "value": "0.35 ± 0.11"},
      {"measurement": "reported ratio of unsaturated fatty acids (d1) by the 13C-labelled experiment", "setting": "[4]", "value": "35 ± 11", "unit": "%"}
    ]},
    {"smiles": "NCC(=O)O", "note": "[^13C-labelled glycine]", "values": [
      {"measurement": "d1, ratio of organic compounds to inorganic compounds immediately after administration", "setting": "[4]", "value": "0.29 ± 0.04"}
    ]},
    {"smiles": "CCCCC/C=C\\C/C=C\\CCCCCCCC(=O)O", "note": "[^13C-labelled linoleic acid]", "values": [
      {"measurement": "d1, ratio of organic compounds to inorganic compounds immediately after administration", "setting": "[4]", "value": "0.29 ± 0.12"},
      {"measurement": "reported ratio of unsaturated fatty acids (d1) by the 13C-labelled experiment", "setting": "[4]", "value": "29 ± 12", "unit": "%"}
    ]},
    {"smiles": "CCCCCCCCCCCCCCCC(=O)O", "note": "[D-labelled palmitic acid]", "values": [
      {"measurement": "ke, excretion rate from FWD compartment", "setting": "[1]; palmitic acid group, orally once daily for four successive days, all volunteers average", "value": 0.070, "unit": "day⁻¹"},
      {"measurement": "ke, excretion rate from FWD compartment", "setting": "[1]; palmitic acid group, orally once daily for four successive days, female average", "value": 0.083, "unit": "day⁻¹"},
      {"measurement": "ke, excretion rate from FWD compartment", "setting": "[1]; palmitic acid group, orally once daily for four successive days, individual female volunteers", "value": "0.059 day⁻¹ and 0.064 day⁻¹ and 0.11 day⁻¹ and 0.099 day⁻¹"},
      {"measurement": "ke, excretion rate from FWD compartment", "setting": "[1]; palmitic acid group, orally once daily for four successive days, individual male volunteers", "value": "0.059 day⁻¹ and 0.055 day⁻¹ and 0.078 day⁻¹ and 0.063 day⁻¹ and 0.040 day⁻¹"},
      {"measurement": "ke, excretion rate from FWD compartment", "setting": "[1]; palmitic acid group, orally once daily for four successive days, male average", "value": 0.059, "unit": "day⁻¹"}
    ]},
    {"smiles": "O=[14C]([O-])O.[Na+]", "note": "[^14C-bicarbonate]", "values": [
      {"measurement": "half-life of carbon dioxide", "setting": "[5]", "value": 5, "unit": "min"}
    ]}
  ]
}
